Results: US20260000705A1, “LIPOPOLYSACCHARIDE FOR USE AS A MEDICAMENT” (priority 2022, published 2026)

Legend:
TLR2/6 = TLR2/6 (Homo sapiens, UniProt O60603+Q9Y2C9); assay: Luciferase reporter assay in HEK-293+TLR2/6 cells; format: cell-based; conditions: corrected on renilla activity; ratios compared to non-stimulated cells; cells lysed 24 h after ligand
Experimental: (§1) Stable immortalized HEK-293+TLR2/6 and HEK-293+TLR4/MD2/CD14 (Invitrogen) cells were seeded in 6-well plates in 1× DMEM supplemented with 5% FBS, 1 mM glutamine, amino acids not essential 1× and pyruvate 0.01%. At 80% confluency, pcon3A-luciferase (pcon3A motif responses to KNFB activation) and TK-renilla vectors (99:1 ratio, respectively) were transfected with metafectene. The transfection medium was changed after 24 hours, and the cells were seeded in 96-well plates. Ligands were added 24 hours later at 80% confluence and cells were lysed after 24 h. Luciferase activity was read using the TwinLite kit (Perkin Elmer) on a Fluo Star Optima (BMG) plate reader and corrected based on renilla activity (three replicates per condition). All ratios were compared to the control condition (non-stimulated cells). We used Pam3CSK4, FSL-1, and Escherichia coli LPS as control ligands with agonistic effect mediated by TLR2/1, TLR2/6, and TLR4 receptors, respectively. TNF alpha was used as a positive control in all cell lines.

TLR4/MD2/CD14 = TLR4/MD2/CD14 (Homo sapiens, UniProt O00206+Q9Y6Y9); assay: Luciferase reporter assay in HEK-293+TLR4/MD2/CD14 cells; format: cell-based; conditions: corrected on renilla activity; ratios compared to non-stimulated cells; cells lysed 24 h after ligand
Chain of TLR4/MD2/CD14 (Q9Y6Y9 19-160): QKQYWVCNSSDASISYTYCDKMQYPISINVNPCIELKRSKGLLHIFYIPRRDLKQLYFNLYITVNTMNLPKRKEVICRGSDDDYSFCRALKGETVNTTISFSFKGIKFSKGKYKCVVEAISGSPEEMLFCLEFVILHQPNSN
Chain of TLR4/MD2/CD14 (O00206 24-839): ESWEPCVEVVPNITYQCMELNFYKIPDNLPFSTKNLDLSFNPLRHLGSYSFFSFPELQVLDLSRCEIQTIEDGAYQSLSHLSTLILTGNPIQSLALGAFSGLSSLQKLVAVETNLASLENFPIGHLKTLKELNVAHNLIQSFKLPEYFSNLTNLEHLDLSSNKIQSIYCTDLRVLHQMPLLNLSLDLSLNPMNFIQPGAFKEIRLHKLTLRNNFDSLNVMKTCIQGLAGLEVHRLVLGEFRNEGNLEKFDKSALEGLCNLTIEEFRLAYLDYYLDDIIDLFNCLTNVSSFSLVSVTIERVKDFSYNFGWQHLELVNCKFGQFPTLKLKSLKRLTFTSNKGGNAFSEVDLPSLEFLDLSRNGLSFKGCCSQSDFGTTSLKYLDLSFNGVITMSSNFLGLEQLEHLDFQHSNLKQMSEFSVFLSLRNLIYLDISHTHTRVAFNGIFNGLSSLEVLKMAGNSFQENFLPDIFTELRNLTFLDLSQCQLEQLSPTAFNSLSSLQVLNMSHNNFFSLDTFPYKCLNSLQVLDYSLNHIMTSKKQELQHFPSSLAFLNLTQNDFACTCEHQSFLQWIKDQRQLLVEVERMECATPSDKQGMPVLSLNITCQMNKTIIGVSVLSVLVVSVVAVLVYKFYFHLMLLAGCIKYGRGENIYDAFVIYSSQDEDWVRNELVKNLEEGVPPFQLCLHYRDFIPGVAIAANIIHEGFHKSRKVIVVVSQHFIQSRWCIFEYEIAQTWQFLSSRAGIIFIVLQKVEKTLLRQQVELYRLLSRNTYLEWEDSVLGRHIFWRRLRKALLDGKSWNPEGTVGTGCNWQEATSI
Experimental: as §1

Chain of TLR2/6 (O60603 21-784): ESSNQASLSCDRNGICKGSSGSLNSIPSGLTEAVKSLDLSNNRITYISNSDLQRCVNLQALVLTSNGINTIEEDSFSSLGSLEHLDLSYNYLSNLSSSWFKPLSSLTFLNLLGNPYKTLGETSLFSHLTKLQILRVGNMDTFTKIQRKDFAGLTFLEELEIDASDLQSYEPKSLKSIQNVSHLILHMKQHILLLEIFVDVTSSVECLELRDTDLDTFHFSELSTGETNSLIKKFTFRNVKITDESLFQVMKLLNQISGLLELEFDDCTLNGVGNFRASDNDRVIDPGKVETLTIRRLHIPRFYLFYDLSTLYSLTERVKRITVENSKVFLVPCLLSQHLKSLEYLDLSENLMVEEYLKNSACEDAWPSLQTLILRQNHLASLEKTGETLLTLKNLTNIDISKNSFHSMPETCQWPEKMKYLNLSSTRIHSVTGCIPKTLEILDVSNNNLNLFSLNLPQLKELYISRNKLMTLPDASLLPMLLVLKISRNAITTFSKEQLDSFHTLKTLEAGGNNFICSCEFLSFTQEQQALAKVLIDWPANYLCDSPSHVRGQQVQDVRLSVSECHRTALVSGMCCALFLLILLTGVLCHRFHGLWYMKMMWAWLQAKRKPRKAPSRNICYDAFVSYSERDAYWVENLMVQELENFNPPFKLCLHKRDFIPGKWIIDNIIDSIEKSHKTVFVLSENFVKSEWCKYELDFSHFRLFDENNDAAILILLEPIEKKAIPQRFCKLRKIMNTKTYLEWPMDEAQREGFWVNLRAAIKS
Chain of TLR2/6 (Q9Y2C9 32-796): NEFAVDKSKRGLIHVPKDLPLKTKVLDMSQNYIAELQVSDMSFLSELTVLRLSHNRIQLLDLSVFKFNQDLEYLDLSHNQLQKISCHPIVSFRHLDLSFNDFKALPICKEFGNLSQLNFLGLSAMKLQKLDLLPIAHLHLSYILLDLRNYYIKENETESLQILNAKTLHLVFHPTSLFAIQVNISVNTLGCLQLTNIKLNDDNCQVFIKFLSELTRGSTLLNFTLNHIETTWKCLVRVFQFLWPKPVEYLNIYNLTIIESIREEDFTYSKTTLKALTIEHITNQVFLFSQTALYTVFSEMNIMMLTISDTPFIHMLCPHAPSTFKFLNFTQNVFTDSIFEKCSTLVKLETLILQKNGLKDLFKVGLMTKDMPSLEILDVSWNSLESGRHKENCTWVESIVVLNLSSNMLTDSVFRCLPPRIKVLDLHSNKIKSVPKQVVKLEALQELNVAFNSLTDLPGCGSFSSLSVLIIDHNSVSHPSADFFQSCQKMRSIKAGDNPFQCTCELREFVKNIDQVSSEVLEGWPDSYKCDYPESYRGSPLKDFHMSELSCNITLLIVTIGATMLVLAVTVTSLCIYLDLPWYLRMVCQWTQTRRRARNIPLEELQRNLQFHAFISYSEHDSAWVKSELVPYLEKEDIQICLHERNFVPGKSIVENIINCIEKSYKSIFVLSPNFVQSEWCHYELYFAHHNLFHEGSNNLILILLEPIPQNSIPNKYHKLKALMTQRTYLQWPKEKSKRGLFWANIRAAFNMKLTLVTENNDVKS

Substance | HEK-TLR2 luciferase activity (TLR2/6) | HEK-TLR4 luciferase activity (TLR4/MD2/CD14)
Pam3CSK4 | 4.079 fold vs non-stimulated cells | 1.112 fold vs non-stimulated cells
FSL-1 | 2.195 fold vs non-stimulated cells | 1.123 fold vs non-stimulated cells
